ChEMBL document CHEMBL2074404, “Regulation of multidrug resistance-associated protein 2 (ABCC2) by the nuclear receptors pregnane X receptor, farnesoid X-activated receptor, and constitutive androstane receptor” (J Biol Chem, 2002)

What was measured:
Bile salt export pump = biological target: T1, Bile salt export pump (Rattus norvegicus, UniProt O70127); test: (§1) TP_TRANSPORTER: Northern blot in vitro, primary hepatocytes; format: functional, cell-based, Hepatocyte
T1 sequence (O70127 whole entry): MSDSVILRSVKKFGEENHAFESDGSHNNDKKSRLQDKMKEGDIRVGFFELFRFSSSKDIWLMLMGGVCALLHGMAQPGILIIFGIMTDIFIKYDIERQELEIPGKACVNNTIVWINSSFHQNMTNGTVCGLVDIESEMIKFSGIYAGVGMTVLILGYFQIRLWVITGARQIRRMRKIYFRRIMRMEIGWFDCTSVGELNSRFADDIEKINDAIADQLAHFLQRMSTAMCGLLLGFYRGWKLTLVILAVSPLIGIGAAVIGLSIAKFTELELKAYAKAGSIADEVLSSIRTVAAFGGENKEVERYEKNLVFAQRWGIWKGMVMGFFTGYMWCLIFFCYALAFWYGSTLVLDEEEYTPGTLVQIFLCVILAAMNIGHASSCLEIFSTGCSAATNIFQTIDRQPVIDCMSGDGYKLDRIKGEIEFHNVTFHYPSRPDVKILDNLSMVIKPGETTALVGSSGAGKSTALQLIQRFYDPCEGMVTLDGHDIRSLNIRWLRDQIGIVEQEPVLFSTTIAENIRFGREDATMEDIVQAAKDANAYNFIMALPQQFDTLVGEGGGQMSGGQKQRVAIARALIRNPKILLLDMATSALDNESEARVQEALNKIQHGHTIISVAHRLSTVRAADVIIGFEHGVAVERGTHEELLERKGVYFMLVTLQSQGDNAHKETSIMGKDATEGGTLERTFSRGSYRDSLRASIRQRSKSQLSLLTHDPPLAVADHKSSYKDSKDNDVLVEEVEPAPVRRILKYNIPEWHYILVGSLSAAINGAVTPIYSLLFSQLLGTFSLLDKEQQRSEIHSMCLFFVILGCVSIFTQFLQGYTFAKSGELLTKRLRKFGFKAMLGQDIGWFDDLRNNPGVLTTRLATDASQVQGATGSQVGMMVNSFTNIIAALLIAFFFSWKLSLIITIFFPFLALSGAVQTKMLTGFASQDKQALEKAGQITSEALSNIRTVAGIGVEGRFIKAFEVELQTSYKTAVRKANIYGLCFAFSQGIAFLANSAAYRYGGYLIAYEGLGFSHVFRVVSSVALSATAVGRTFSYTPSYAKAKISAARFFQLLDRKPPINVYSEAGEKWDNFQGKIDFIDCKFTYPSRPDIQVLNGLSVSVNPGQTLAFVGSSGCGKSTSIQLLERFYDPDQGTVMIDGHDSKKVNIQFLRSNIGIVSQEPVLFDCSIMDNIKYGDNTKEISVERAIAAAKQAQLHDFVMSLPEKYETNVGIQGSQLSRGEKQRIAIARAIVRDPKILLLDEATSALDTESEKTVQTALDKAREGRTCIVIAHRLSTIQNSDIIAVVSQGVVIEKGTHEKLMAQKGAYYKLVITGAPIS

[1] = biological target: ATP-binding cassette sub-family C member 2 (Rattus norvegicus, UniProt Q63120); test: as §1; format: functional, cell-based, Hepatocyte
Chain of ATP-binding cassette sub-family C member 2 (Rattus norvegicus, UniProt Q63120) (Q63120 whole entry): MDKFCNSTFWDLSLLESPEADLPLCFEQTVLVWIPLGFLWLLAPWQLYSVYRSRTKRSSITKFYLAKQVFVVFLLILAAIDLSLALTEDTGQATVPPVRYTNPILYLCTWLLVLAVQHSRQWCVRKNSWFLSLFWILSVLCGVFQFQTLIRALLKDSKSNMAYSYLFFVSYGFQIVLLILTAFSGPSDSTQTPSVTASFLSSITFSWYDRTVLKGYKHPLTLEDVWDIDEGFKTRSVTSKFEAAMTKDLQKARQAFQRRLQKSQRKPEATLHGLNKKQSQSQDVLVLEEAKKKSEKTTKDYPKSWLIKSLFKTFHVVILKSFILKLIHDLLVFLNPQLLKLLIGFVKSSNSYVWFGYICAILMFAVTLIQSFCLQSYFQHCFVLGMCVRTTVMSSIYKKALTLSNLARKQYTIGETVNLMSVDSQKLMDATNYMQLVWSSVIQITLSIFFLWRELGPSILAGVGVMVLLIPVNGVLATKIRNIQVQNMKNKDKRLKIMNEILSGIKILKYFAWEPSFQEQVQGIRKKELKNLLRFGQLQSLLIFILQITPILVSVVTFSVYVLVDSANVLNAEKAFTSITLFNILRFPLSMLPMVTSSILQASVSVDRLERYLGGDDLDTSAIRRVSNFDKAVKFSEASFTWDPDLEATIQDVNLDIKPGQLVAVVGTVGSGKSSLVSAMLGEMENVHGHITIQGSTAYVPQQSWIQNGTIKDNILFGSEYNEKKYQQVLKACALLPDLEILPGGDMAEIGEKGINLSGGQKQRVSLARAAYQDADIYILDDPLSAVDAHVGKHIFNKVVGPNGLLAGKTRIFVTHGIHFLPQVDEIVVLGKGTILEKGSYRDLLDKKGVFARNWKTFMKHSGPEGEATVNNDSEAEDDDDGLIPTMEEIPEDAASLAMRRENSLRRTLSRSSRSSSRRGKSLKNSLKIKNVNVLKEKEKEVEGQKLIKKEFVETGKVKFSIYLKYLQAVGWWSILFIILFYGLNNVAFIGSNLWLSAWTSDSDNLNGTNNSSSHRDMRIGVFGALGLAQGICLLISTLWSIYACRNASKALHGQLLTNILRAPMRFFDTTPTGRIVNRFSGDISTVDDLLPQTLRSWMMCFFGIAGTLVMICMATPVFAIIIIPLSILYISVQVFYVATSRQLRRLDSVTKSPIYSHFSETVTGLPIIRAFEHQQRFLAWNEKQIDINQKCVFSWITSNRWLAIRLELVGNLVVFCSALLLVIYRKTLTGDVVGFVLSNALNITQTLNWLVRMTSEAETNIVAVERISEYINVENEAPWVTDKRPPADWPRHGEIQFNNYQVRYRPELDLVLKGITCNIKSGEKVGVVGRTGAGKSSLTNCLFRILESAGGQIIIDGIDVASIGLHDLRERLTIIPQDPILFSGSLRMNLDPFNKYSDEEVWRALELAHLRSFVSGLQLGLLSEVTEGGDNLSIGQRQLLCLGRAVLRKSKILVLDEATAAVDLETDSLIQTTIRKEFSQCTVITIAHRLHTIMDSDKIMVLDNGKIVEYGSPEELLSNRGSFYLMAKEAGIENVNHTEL

[2] = biological target: T2, ATP-binding cassette sub-family C member 2 (Homo sapiens, UniProt Q92887); test: TP_TRANSPORTER: Northern blot from HepG2 cells; format: functional, cell-based
T2 sequence (Q92887 whole entry): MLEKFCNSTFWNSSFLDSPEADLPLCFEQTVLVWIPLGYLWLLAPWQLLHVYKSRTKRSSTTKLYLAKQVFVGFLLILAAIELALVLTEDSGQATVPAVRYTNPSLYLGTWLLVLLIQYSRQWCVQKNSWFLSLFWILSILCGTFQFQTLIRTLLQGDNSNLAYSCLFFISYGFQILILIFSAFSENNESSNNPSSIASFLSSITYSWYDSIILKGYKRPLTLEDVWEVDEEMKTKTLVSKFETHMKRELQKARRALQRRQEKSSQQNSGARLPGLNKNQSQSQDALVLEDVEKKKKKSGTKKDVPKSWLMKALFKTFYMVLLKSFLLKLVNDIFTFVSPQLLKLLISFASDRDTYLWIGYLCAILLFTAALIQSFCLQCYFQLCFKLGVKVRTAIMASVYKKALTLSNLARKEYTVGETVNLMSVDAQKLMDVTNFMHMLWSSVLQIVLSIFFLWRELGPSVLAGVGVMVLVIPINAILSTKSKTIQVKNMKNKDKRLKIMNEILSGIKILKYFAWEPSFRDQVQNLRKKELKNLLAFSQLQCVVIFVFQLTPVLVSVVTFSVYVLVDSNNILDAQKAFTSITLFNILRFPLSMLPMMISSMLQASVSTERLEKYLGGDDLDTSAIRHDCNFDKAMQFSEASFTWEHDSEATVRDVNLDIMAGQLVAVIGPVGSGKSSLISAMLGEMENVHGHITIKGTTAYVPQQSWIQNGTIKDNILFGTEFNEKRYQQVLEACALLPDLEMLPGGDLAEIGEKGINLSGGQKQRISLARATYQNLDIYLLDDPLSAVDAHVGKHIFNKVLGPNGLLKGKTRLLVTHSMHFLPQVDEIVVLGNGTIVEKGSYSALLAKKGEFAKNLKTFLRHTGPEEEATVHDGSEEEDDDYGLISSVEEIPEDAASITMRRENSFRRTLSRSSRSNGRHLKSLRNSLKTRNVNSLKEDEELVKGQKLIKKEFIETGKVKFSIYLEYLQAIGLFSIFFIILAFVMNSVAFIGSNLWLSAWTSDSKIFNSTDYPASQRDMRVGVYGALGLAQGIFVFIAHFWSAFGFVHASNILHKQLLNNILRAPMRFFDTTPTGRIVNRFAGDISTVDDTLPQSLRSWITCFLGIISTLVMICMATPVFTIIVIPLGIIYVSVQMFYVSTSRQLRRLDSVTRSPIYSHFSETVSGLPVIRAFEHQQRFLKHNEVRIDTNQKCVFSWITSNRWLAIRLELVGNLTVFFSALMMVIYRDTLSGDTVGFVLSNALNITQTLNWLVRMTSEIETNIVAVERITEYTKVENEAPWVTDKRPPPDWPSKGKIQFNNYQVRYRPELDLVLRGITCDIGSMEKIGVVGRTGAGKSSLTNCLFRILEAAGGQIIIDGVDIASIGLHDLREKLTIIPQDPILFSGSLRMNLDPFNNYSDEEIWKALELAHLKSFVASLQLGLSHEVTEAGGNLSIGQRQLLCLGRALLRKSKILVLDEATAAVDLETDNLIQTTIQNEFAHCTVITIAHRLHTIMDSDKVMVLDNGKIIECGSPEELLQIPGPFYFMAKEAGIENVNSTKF

[3] = biological target: ATP-binding cassette sub-family C member 2 (Mus musculus, UniProt Q8VI47); test: as §1; format: functional, cell-based, Hepatocyte
Chain of ATP-binding cassette sub-family C member 2 (Mus musculus, UniProt Q8VI47) (Q8VI47 whole entry): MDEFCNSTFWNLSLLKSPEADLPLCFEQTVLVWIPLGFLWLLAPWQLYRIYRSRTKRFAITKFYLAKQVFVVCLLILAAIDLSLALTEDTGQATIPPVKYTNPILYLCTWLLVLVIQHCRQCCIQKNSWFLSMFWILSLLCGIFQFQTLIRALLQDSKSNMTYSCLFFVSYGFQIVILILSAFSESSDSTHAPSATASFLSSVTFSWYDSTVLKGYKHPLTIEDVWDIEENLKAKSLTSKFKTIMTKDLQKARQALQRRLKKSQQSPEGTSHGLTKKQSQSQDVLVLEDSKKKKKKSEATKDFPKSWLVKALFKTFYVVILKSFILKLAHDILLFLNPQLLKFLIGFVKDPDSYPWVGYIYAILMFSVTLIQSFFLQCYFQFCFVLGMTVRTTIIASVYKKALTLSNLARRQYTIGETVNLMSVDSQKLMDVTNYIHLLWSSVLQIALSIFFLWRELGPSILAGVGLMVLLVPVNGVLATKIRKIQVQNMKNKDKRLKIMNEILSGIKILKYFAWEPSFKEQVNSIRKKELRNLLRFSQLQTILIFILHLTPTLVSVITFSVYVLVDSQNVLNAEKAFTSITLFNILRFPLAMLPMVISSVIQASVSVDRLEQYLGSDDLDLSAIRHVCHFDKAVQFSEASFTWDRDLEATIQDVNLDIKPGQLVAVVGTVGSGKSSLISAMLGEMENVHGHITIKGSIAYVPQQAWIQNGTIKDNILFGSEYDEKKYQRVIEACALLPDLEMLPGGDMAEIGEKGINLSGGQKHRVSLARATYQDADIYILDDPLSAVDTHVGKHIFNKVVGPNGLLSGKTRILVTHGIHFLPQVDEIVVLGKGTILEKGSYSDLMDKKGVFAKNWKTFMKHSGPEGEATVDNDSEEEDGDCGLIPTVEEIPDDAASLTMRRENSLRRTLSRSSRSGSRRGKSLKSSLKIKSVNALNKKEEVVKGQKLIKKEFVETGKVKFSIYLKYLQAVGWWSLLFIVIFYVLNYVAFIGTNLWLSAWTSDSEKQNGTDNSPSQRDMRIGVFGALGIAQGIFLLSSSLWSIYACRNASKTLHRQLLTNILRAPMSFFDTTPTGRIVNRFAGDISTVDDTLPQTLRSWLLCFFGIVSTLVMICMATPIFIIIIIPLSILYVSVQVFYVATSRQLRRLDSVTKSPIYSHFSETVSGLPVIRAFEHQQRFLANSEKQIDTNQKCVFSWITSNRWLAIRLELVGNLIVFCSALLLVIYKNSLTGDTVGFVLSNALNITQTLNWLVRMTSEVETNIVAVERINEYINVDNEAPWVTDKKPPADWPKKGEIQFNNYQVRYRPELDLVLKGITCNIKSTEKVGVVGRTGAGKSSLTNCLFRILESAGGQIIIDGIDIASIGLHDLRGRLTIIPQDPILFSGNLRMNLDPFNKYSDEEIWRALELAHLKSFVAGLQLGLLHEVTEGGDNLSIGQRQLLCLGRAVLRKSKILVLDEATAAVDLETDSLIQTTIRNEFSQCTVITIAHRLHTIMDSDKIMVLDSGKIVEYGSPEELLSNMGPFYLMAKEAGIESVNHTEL

[4] = biological target: T2, ATP-binding cassette sub-family C member 2; test: as §1; format: functional, cell-based, Hepatocyte

What does the source list for `CC(C)c1onc(-c2c(Cl)cccc2Cl)c1COc1ccc(/C=C/c2cccc(C(=O)O)c2)c(Cl)c1`?
Activity (Bile salt export pump): inducer [+]; Activity [1]: inducer [+]; Activity [2]: inducer [+]

What does the source list for `CC(=O)[C@H]1[C@H](C#N)C[C@H]2[C@@H]3CC=C4C[C@@H](O)CC[C@]4(C)[C@H]3CC[C@@]21C` [PREGNENOLONE CARBONITRILE]?
Activity [3]: inducer [+]; Activity (Bile salt export pump): inducer [+]; Activity [1]: inducer [+]

For `CCC1(c2ccccc2)C(=O)NC(=O)NC1=O` [PHENOBARBITAL], which Activity [3] is on record?
The Activity was “inducer [+]”.

And the Activity (Bile salt export pump)?
Its Activity is “inducer [+]”.

`CC(C)=CCC[C@]1(C)[C@@H](CC=C(C)C)C[C@]2(CC=C(C)C)C(=O)C(CC=C(C)C)=C(O)[C@@]1(C(=O)C(C)C)C2=O` was tested. Which Activity [4] did it give?
Its Activity is “inducer [+]”.

For `C[C@H](CCC(=O)O)[C@H]1CC[C@H]2[C@@H]3[C@H](O)C[C@@H]4C[C@H](O)CC[C@]4(C)[C@H]3CC[C@]12C` [CHENODIOL], which Activity [2] is on record?
Its Activity is “inducer [+]”.
